The source made the active and inactive calls. No cut-off for these calls is given here.
How the values were obtained:
[1] = system: Mus musculus; assay: Anti alzheimer activity in scopolamine induced anxiety in ICR mouse assessed as relieved anxiety pretreated with scopolamine at 3 mg/kg, ip for 31 days followed by compound addition at 20 mg/kg, po at day 7 to 31; assay type: functional, organism-based; conditions: time 25.0 day
[2] = system: Mus musculus; assay: Neuroprotective effect in scopolamine induced cognitively impaired mouse assessed as recovery of decreased Nissl bodies in CA3 region at hippocampus at 20 mg/kg by Nissl staining analysis; assay type: functional, organism-based
[3] = system: Mus musculus; assay: In vivo effect on HO-1 expression in scopolamine induced cognitive impaired mouse assessed as reversal of NRF2 signalling in hippocampus treated at 20 mg/kg by immunofluorescence analysis; assay type: functional, organism-based
[4] = Acute toxicity in mouse assessed as histopathological change in spleen at 2000 mg/kg, IG administered as single dose measured after 14 days measured by H and E staining analysis; assay type: organism-based; conditions: in vivo, po, 336 h, time 14 day
[5] = system: Mus musculus; assay: In vivo effect on HO-1 expression in scopolamine induced cognitive impaired mouse assessed as reversal of NRF2 signalling in hippocampus treated at 20 mg/kg by immunoblot analysis; assay type: functional, organism-based
[6] = system: Mus musculus; assay: Antioxidant activity in scopolamine induced cognitive impaired mouse assessed as reversal of HO-1 level in cortex at 20 mg/kg; assay type: functional, organism-based
[7] = system: BV-2; assay: Neuroprotective activity against amyloid beta (1 to 42) induced neurotoxicity in mouse BV-2 cells assessed as survival of cells at 10 uM treated for 24 hrs relative to control; assay type: functional
[8] = system: BV-2; assay: Effect of amyloid beta (1 to 42) indued apoptosis in mouse BV-2 cells assessed as viable cells at 10 uM measured by propidium iodide staining based flow cytometric analysis (reference value: 61.29%); assay type: functional; conditions: read-out: Activity
[9] = Half life in Sprague-Dawley rat at 15 mg/kg, IG; assay type: ADME, organism-based; conditions: in vivo, po
[10] = system: BV-2; assay: Effect of amyloid beta (1 to 42) indued apoptosis in mouse BV-2 cells assessed as early apoptotic cells at 2.5 uM measured by propidium iodide staining based flow cytometric analysis (reference value: 26.12%); assay type: functional
[11] = Drug concentration in plasma of Sprague-Dawley rat at 15 mg/kg, IG measured after 2 hrs; assay type: ADME, organism-based; conditions: po
[12] = system: BV-2; assay: Effect of amyloid beta (1 to 42) indued apoptosis in mouse BV-2 cells assessed as viable cells at 2.5 uM measured by propidium iodide staining based flow cytometric analysis (reference value: 61.29%); assay type: functional; conditions: read-out: Activity
[13] = system: BV-2; assay: Effect of amyloid beta (1 to 42) indued apoptosis in mouse BV-2 cells assessed as necrotic cells at 10 uM measured by propidium iodide staining based flow cytometric analysis (reference value: 5.72%); assay type: functional
[14] = system: Mus musculus; assay: Neuroprotective effect in scopolamine induced cognitively impaired mouse assessed as decrease in neuronal damage in CA1 region by measuring increase in neuronal nuclear antigen level at hippocampus at 20 mg/kg by immunoblot analysis; assay type: functional, organism-based
[15] = system: Mus musculus; assay: In vivo effect on NRF2 expression in scopolamine induced cognitive impaired mouse assessed as reversal of NRF2 signalling in hippocampus treated at 20 mg/kg by immunofluorescence analysis; assay type: functional, organism-based
[16] = system: Mus musculus; assay: In vivo antiinflammatory activity in scopolamine induced cognitive impaired ICR mouse assessed as decrease in IL-6 levels in cortex; assay type: functional, organism-based
[17] = AUC(0 to t) in Sprague-Dawley rat at 15 mg/kg, IG; assay type: ADME, organism-based; parameters: dose 15 mg/kg, route ig; conditions: in vivo, po
[18] = system: Mus musculus; assay: Anti alzheimer activity in scopolamine induced anxiety in ICR mouse assessed as increase in crossing time by measuring escape latency pretreated with scopolamine at 3 mg/kg, ip for 31 days followed by compound addition at 20 mg/kg, po at day 7 to 31 by morris water maze test; assay type: functional, organism-based; conditions: time 25.0 day
[19] = Clearance in Sprague-Dawley rat at 15 mg/kg, IG; assay type: ADME, organism-based; conditions: in vivo, po
[20] = system: BV-2; assay: Effect on H2O2 induced reactive oxygen species in mouse BV-2 cells assessed as reduction of ROS generation at 5 uM by fluorescence microscopic analysis relative to control; assay type: functional; parameters: scale not given: the % may be the effect or the level left
[21] = Ratio of drug concentration in hippocampus to plasma of Sprague-Dawley rat at 15 mg/kg, IG measured after 0.5 hrs; assay type: ADME, organism-based; conditions: po
[22] = Acute toxicity in mouse assessed as histopathological change in liver at 2000 mg/kg, IG administered as single dose measured after 14 days measured by H and E staining analysis; assay type: organism-based; conditions: in vivo, po, 336 h, time 14 day
[23] = molecular target: T1, Amyloid-beta precursor protein (Homo sapiens, UniProt P05067); assay: Inhibition of amyloid beta (1 to 42) (unknown origin) self aggregation
[24] = Drug concentration in hippocampus of Sprague-Dawley rat at 15 mg/kg, IG measured after 0.5 hrs; assay type: ADME, organism-based; conditions: po, read-out: Drug uptake
[25] = Metal chelating activity assessed as compound-Cu2+ complex formation by measuring shift at 1:1 at 50 uM in PBS buffer 7.4 by UV-vis spectrometric analysis
[26] = Drug concentration in plasma of Sprague-Dawley rat at 15 mg/kg, IG measured after 1 hrs; assay type: ADME, organism-based; conditions: po
[27] = Drug concentration in plasma of Sprague-Dawley rat at 15 mg/kg, IG measured after 4 hrs; assay type: ADME, organism-based; conditions: po
[28] = system: Mus musculus; assay: Anti alzheimer activity in scopolamine induced anxiety in ICR mouse assessed as decrease in motor trajectories pretreated with scopolamine at 3 mg/kg, ip for 31 days followed by compound addition at 20 mg/kg, po at day 7 to 31 by morris water maze test; assay type: functional, organism-based; conditions: time 25.0 day
[29] = system: Mus musculus; assay: In vivo antiinflammatory activity in scopolamine induced cognitive impaired ICR mouse assessed as decrease in GFAP levels in hippocampus by immunoblot analysis; assay type: functional, organism-based
[30] = system: BV-2; assay: Antioxidant activity in H2O2 treated mouse BV-2 cells assessed as nuclear translocation of NRF2 at 5 to 20 uM by immunofluorescence analysis; assay type: functional, cell-based; conditions: dose 5-20 µM
[31] = system: BV-2; assay: Effect on H2O2 induced reactive oxygen species in mouse BV-2 cells assessed as reduction of ROS generation at 10 uM by fluorescence microscopic analysis relative to control; assay type: functional; parameters: scale not given: the % may be the effect or the level left
[32] = system: Mus musculus; assay: Anti alzheimer activity in scopolamine induced anxiety in ICR mouse assessed as improved exploratory activity pretreated with scopolamine at 3 mg/kg, ip for 31 days followed by compound addition at 20 mg/kg, po at day 7 to 31; assay type: functional, organism-based; conditions: time 25.0 day
[33] = Drug concentration in plasma of Sprague-Dawley rat at 15 mg/kg, IG measured after 0.5 hrs; assay type: ADME, organism-based; conditions: po
[34] = system: BV-2; assay: Effect of amyloid beta (1 to 42) indued apoptosis in mouse BV-2 cells assessed as late apoptotic cells at 5 uM measured by propidium iodide staining based flow cytometric analysis (reference value: 6.88%); assay type: functional
[35] = molecular target: T1, Amyloid-beta precursor protein; assay: Inhibition of amyloid beta (1 to 42) (unknown origin) self aggregation assessed as low density in amyloid fibrils compound addition at 50 uM after fibrilation for 24 hrs
[36] = system: BV-2; assay: Effect of amyloid beta (1 to 42) indued apoptosis in mouse BV-2 cells assessed as early apoptotic cells at 10 uM measured by propidium iodide staining based flow cytometric analysis (reference value: 26.12%); assay type: functional
[37] = molecular target: T1, Amyloid-beta precursor protein; assay: Inhibition of amyloid beta (1 to 42) (unknown origin) self aggregation assessed as disaggregation relative to control; parameters: concentration or dose not given beside the values; conditions: concentration not given here
[38] = Drug concentration in hippocampus of Sprague-Dawley rat at 15 mg/kg, IG measured after 4 hrs; assay type: ADME, organism-based; conditions: po, read-out: Drug uptake
[39] = Drug concentration in hippocampus of Sprague-Dawley rat at 15 mg/kg, IG measured after 1 hrs; assay type: ADME, organism-based; conditions: po, read-out: Drug uptake

T1 sequence (P05067 whole entry): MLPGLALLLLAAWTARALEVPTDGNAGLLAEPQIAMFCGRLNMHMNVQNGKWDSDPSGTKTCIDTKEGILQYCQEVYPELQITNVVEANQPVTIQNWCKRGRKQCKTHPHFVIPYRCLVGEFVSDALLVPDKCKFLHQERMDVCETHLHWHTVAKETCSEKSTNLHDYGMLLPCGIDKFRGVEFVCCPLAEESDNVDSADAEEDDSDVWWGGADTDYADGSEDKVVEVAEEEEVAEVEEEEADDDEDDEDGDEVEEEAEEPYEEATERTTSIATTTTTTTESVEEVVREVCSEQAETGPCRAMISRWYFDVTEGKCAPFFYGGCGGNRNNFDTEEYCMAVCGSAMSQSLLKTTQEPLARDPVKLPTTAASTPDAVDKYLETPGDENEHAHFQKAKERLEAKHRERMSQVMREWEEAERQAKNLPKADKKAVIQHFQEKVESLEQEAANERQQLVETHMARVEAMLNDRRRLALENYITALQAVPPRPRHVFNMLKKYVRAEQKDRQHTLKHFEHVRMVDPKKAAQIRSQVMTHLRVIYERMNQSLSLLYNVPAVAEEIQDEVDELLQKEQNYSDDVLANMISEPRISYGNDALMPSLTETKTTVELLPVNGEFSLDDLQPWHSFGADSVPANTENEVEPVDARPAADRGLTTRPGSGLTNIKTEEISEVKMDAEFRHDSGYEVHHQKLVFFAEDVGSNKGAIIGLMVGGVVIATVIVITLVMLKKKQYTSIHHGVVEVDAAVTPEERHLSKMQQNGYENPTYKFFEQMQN

In the case of `O=c1ccoc(/C=C/c2ccc(O)c(O)c2)c1O`, the Activity [1] is reported as “Active”, the Activity [2] is reported as “Active” and the Activity [3] is reported as “Active”. For the same compound, the Activity [4] was “Non-Toxic”, the Activity [5] was “Active” and the Activity [6] was “Active”. The Activity [7] was 75.5%, the viability at 10 µM [8] was 63.1% and the half-life [9] was 14 h. For the same compound, the Activity [10] was 13.4%, the concentration at 2 h [11] was 0.99 ng/mL and the viability at 2.5 µM [12] was 76.2%. The Activity [13] was 7.98%, the Activity [14] was “Active” and the Activity [15] was “Active”. The Activity [16] was “Active”, the AUC(0-t) [17] was 24.4 ng·h/mL and the Activity [18] was “Active”. It also gave a CL/F [19] of 481 L/h/kg, an Activity [20] of 19.45% and a Kp at 0.5 h [21] of 2.27. For the same compound, the Activity [22] was “Non-Toxic”, the IC50 [23] was 11.1 µM and the concentration at 0.5 h [24] was 5.4 ng/mL. For the same compound, the Activity [25] was “Active”, the concentration at 1 h [26] was 1.77 ng/mL and the concentration at 4 h [27] was 0.95 ng/mL. For the same compound, the Activity [28] was “Active”, the Activity [29] was “Active” and the Activity [30] was “Active”. The Activity [31] was 34.85%, the Activity [32] was “Active” and the concentration at 0.5 h [33] was 2.68 ng/mL. The Activity [34] was 13.4%, the Activity [35] was “Active” and the Activity [36] was 22.1%. For the same compound, the inhibition [37] was 90.4%, the concentration at 4 h [38] was 4.89 ng/mL and the concentration at 1 h [39] was 8.72 ng/mL.
